{
  "source": "patent US20030032674A1",
  "about": "“Use of unsaturated fatty acids to treat severe inflammatory diseases” (priority 2001, published 2003)",
  "tested_on": "COX-2 expression",
  "assay": "COX-2 immunoblot (Western blot) in RAW 264.7 cells",
  "assay_type": "cell-based, murine",
  "protocol": "Cell culture—RAW 264.7 cells (a murine macrophage-like cell line, ATCC TIB-71), 293T cells (a human embryonic kidney cell line, provided by Sam Lee, Beth Israel Hospital. Boston, Mass.), and HT-29 cells (a human colon adenocarcinoma cell line, ATCC HTB-38) were cultured in Dulbecco's modified Eagle's medium (DMEM) containing 10% (v/v) heat-inactivated fetal bovine serum (FBS, Intergen) and 100 units/ml Penicillin and […] Streptomycin (GIBCO-BRL) at 37° C. in a 5% CO2/air environment. Cells (2×10^6) were plated in 60-mm dishes and cultured for an additional 18 hours to allow the number of cells to approximately double. Cells were maintained in serum-poor (0.25% FBS) medium for another 18 hours prior to the treatment with indicated reagents.\nPreparation of fatty acids-albumin complexes—All fatty acids were solubilized in ethanol, and then combined with fatty acid-free and low-endotoxin BSA at a molar ratio of 10:1 (fatty acid: albumin) in serum-poor medium (0.25% FBS). Fatty acids-albumin complex solution was freshly prepared prior to each experiment.\nSodium dodecyl sulfate-polyacrylamide gel electrophoresis (SDS-PAGE) and immunoblotting—These procedures were performed as previously described in D. Hwang et al., “Expression of mitogen-inducible cyclooxygenase induced by lipopolysaccharide: mediation through both mitogen-activated protein kinase and NF-kappaB signaling pathways in macrophages,” Biochem. Pharmacol., vol. 54, pp. 87-96 (1997). Briefly, solubilized proteins were subjected to 8% SDS-PAGE for COX-2, iNOS, IL- 1α and GAPDH immunoblot analyses. Following electrophoresis, the gel was transferred to a PVDF membrane and the membrane was blocked to prevent non-specific binding of antibodies in TBS-T [20 mM Tris HCl, 137 mM NaCl, 0.05% (v/v) Tween 20, pH 7.6] containing 5% non-fat dried milk (Carnation). Immunoblotting was performed using respective polyclonal antibodies followed by incubation with anti-rabbit IgG coupled to horseradish peroxidase. The membrane was exposed on an X-ray film (Kodak) using ECL western blot detection reagents (Amersham).\nAfter 11 h, cell lysates were analyzed by COX-2, iNOS, IL-1α, or GAPDH immunoblot using a Western blot analysis.\nThe cell lysates were analyzed by COX-2 or GAPDH immunoblot.\nRAW 264.7 cells were pretested with various concentrations (5, 10, 20, and 50 μM) of docosahexaenoic acid (C22:6n-3) for 3 hours, and then stimulated with LPS (100 ng/ml) for 8 hours and analyzed by COX-2, iNOS, IL-1 a or GAPDH immunoblot.\nCells stably transfected with NFκB(5×) or COX-2 promoter reporter genes were pretreated with various concentrations of each fatty acid for 3 hrs. Cells were then treated with LPS (200 ng/ml). After 8 hrs, cell lysates were prepared and luciferase activities were determined. Data are expressed as a percentage of LPS treatment alone. The results for NFκB and COX-2 expression are given in FIGS. 8A and 8B, respectively. The values are mean±SEM (n=3) of RLA, relative luciferase activity. In FIG. 8C, the cells were pretreated with DHA (20 μM) or C12:0 (75 μM) for 3 hrs and further stimulated with LPS (200 ng/ml for DHA; 1 ng/ml for C12:0). After 8 hr, cell lysates were analyzed by COX-2 and actin immunoblotting.",
  "data": [
    {"compound": "CCCCCCCCCCCC(=O)O", "note": "[lauric acid]", "values": [
      {"measurement": "effect on LPS-induced COX-2 expression (immunoblot)", "setting": "DHA 20 μM or C12:0 75 μM 3 hrs, LPS 200 ng/ml for DHA, 1 ng/ml for C12:0, 8 hr", "result": "potentiated"},
      {"measurement": "COX-2 expression induced by fatty acid (immunoblot)", "setting": "RAW 264.7, lauric acid 1, 10, 50, 100 μM with BSA, 11 h", "result": "induced"}
    ]}
  ]
}
